Source: PMC5692573 (Proceedings of the National Academy of Sciences of the …, 2017)

B1: Kif18A_MDNL, monomeric human Kif18A motor-neck linker construct (domain or fragment)
chain: MSVTEEDLCHHMKVVVRVRPENTKEKAAGFHKVVHVVDKHILVFDPKQEEVSFFHGKKTTNQNVIKKQNKDLKFVFDAVFDETSTQSEVFEHTTKPILRSFLNGYNCTVLAYGATGAGKTHTMLGSADEPGVMYLTMLHLYKCMDEIKEEKICSTAVSYLEVYNEQIRDLLVNSGPLAVREDTQKGVVVHGLTLHQPKSSEEILHLLDNGNKNRTQHPTDMNATSSRSHAVFQIYLRQQDKTASINQNVRIAKMSLIDLAGSERASTSGAKGTRFVEGTNINRSLLALGNVINALADSKRKNQHIPYRNSKLTRLLKDSLGGNCQTIMIAAVSPSSVFYDDTYNTLKYANRAKDIKSSLKSNVLNVNNHITQYV

What was measured:
[1] = target: Kif18A (Homo sapiens, UniProt Q8NI77); test: cryo-EM reconstruction; type: binding
[2] = target: αβ-tubulin heterodimer (in paclitaxel-stabilized microtubules, or as curved tubulin in rings); test: cryo-EM 2D class averages

| Molecule | cryo-EM reconstruction (~6 Å) of MT-bound Kif18A_MDNL with AMPPNP [1] | stoichiometry N [2] |
| --- | --- | --- |
| Nc1ncnc2c1ncn2[C@@H]1O[C@H](CO[P@](=O)(O)O[P@](=O)(O)NP(=O)(O)O)[C@@H](O)[C@H]1O [AMPPNP] | In the presence of AMPPNP, the nucleotide-binding site is clearly occupied by the bound nucleotide |  |
| B1 |  | 1 |
